This note sets out measurements from patent US20120083522A1, “MODULATION OF INFLAMMATORY RESPONSES BY FACTOR XI” (Isis Pharmaceuitcals, inc., priority 2009, published 2012).

In the oligonucleotide strings, read from the 5' end, every base follows the letter of its sugar. An asterisk marks phosphorothioate; unmarked linkages are phosphodiester. Other units and linkages are bracketed, terminal groups are in braces. A string of capitals states the bases alone. e = 2'-O-(2-methoxyethyl) (MOE); [5mC] = 5-methylcytosine; d = 2'-deoxy (DNA)

One data set is described as follows: Tolerability in CD1 mice: body and organ weight (Example 25). The class given is in vivo. Particulars: 50 mg/kg s.c. twice per week for 6 weeks.
As to “ISIS 445505: microwalk gapmer of Table 51 (antisense e[5mC]*eG*eG*e[5mC]*eA*eT*dT*dG*dG*dT*dG*d[5mC]*dA*d[5mC]*eA*eG*eT*eT*eT*e[5mC])”, the “Body weight (increase over PBS control weight before start of treatment)” value was determined as 12 g.

Regarding “ISIS 445513: microwalk gapmer of Table 51 (antisense eG*e[5mC]*eA*eG*e[5mC]*eG*dG*dA*d[5mC]*dG*dG*d[5mC]*dA*dT*eT*eG*eG*eT*eG*e[5mC])”, the “Body weight (increase over PBS control weight before start of treatment)” value is recorded as 9 g.

With “ISIS 445498: microwalk gapmer of Table 51 (antisense eG*eG*eT*eG*e[5mC]*eA*d[5mC]*dA*dG*dT*dT*dT*d[5mC]*dT*eG*eG*e[5mC]*eA*eG*eG)”, the “Body weight (increase over PBS control weight before start of treatment)” value is 10 g.

For “ISIS 445504: microwalk gapmer of Table 51 (antisense eG*eG*e[5mC]*eA*eT*eT*dG*dG*dT*dG*d[5mC]*dA*d[5mC]*dA*eG*eT*eT*eT*e[5mC]*eT)”, the “Body weight (increase over PBS control weight before start of treatment)” value came out at 11 g.

Regarding “ISIS 445509: microwalk gapmer of Table 51 (antisense e[5mC]*eG*eG*eA*e[5mC]*eG*dG*d[5mC]*dA*dT*dT*dG*dG*dT*eG*e[5mC]*eA*e[5mC]*eA*eG)”, the “Body weight (increase over PBS control weight before start of treatment)” value came to 10 g.

The data set is the same for the next values; noted with them: 50 mg/kg s.c. twice per week for 6 weeks, end of study.
Turning to “ISIS 445505: microwalk gapmer of Table 51 (antisense e[5mC]*eG*eG*e[5mC]*eA*eT*dT*dG*dG*dT*dG*d[5mC]*dA*d[5mC]*eA*eG*eT*eT*eT*e[5mC])”, the “Kidney weight as percentage of body weight” value (“Kidney weight as percentage” for short) is recorded as 1.5%, the “Liver weight as percentage of body weight” value (from here on “Liver weight as percentage”) came out at 6% and the “Spleen weight as percentage of body weight” value (“Spleen weight as percentage” for short) is 0.5%.

“ISIS 445513: microwalk gapmer of Table 51 (antisense eG*e[5mC]*eA*eG*e[5mC]*eG*dG*dA*d[5mC]*dG*dG*d[5mC]*dA*dT*eT*eG*eG*eT*eG*e[5mC])”: the “Kidney weight as percentage” value was 1.6%, the “Liver weight as percentage” value is 5% and the “Spleen weight as percentage” value is given as 0.4%.

For the substance “ISIS 445498: microwalk gapmer of Table 51 (antisense eG*eG*eT*eG*e[5mC]*eA*d[5mC]*dA*dG*dT*dT*dT*d[5mC]*dT*eG*eG*e[5mC]*eA*eG*eG)”, the “Kidney weight as percentage” value is reported as 1.6%, the “Liver weight as percentage” value amounted to 6% and the “Spleen weight as percentage” value was determined as 0.5%.

Take “ISIS 445504: microwalk gapmer of Table 51 (antisense eG*eG*e[5mC]*eA*eT*eT*dG*dG*dT*dG*d[5mC]*dA*d[5mC]*dA*eG*eT*eT*eT*e[5mC]*eT)”: the “Kidney weight as percentage” value is recorded as 1.6%, the “Liver weight as percentage” value is reported as 6% and the “Spleen weight as percentage” value stood at 0.4%.

Consider “ISIS 445509: microwalk gapmer of Table 51 (antisense e[5mC]*eG*eG*eA*e[5mC]*eG*dG*d[5mC]*dA*dT*dT*dG*dG*dT*eG*e[5mC]*eA*e[5mC]*eA*eG)”, for which the “Kidney weight as percentage” value is on record as 1.6%, the “Liver weight as percentage” value was determined as 6% and the “Spleen weight as percentage” value was 0.5%.

A short description of the next data set: Tolerability in Sprague-Dawley rats: hematology assays (Example 23). In kind it is in vivo. More on the design: RBC / WBC / Neutrophil / Lymphocyte / Platelets: unit not given here. Particulars: blood.
In turn, “ISIS 416867: gapmer of Table 8 (antisense eA*e[5mC]*eT*eG*eG*d[5mC]*dA*dG*d[5mC]*dG*dG*dA*d[5mC]*dG*dG*e[5mC]*eA*eT*eT*eG)” yielded an RBC of 7.8 and a WBC of 14.

“ISIS 416859: gapmer of Table 8 (antisense eG*eA*e[5mC]*eG*eG*d[5mC]*dA*dT*dT*dG*dG*dT*dG*d[5mC]*dA*e[5mC]*eA*eG*eT*eT)” gave an RBC of 7.8 and a WBC of 16.

“ISIS 416852: gapmer of Table 8 (antisense eT*eG*eG*eT*eG*d[5mC]*dA*d[5mC]*dA*dG*dT*dT*dT*d[5mC]*dT*eG*eG*e[5mC]*eA*eG)” returned an RBC of 7.2 and a WBC of 13.

As to “ISIS 416863: gapmer of Table 8 (antisense e[5mC]*eA*eG*e[5mC]*eG*dG*dA*d[5mC]*dG*dG*d[5mC]*dA*dT*dT*dG*eG*eT*eG*e[5mC]*eA)”, the RBC is on record as 7.6 and the WBC was 17.

For the substance “ISIS 416848: gapmer of Table 8 (antisense e[5mC]*eA*e[5mC]*eA*eG*dT*dT*dT*d[5mC]*dT*dG*dG*d[5mC]*dA*dG*eG*e[5mC]*e[5mC]*eT*e[5mC])”, the RBC was found to be 6.0 and the WBC was 17.

“ISIS 416861: gapmer of Table 8 (antisense eG*e[5mC]*eG*eG*eA*d[5mC]*dG*dG*d[5mC]*dA*dT*dT*dG*dG*dT*eG*e[5mC]*eA*e[5mC]*eA)” returned an RBC of 7.7 and a WBC of 15.
